The target in this assay is T1, PAR4 (Homo sapiens, UniProt Q96RI0).
T1 construct: expressed in transfected cells; host or cells: HEK293 PAR4 Clone 1.2A (BMS Arctic ID 383940)
T1 sequence (Q96RI0 18-385): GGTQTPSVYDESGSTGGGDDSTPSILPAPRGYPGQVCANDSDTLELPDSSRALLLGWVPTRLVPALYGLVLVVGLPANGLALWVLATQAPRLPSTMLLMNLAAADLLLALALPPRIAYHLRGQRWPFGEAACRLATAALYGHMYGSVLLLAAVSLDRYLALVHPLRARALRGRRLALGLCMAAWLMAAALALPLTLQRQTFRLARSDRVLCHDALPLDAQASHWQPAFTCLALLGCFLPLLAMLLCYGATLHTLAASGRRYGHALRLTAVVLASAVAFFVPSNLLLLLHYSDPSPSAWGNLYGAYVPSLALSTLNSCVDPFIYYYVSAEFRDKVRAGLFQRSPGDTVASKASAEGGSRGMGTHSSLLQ
The assay can be described thus: PAR4 FLIPR assay (antagonism of agonist peptide-induced calcium mobilization). It is filed as cell-based. The method, boiled down:
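Antagonism was taken as block of calcium mobilization evoked by the agonist peptide H-Ala-Phe(4-F)-Pro-Gly-Trp-Leu-Val-Lys-Asn-[…]-NH2, added after 30 min room-temperature compound preincubation in dye-loaded PAR4-transfected HEK293 cells (endogenous PAR1). Fluorescence was read on FDSS, with compound addition alone used as the agonist counter-screen; values come from 11-point concentration-response curves.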
A general note: Calcium assays in cells follow changes in intracellular calcium, usually with a dye or a luminescent sensor.
As a reminder, the IC50 is the concentration at which inhibition is half-maximal. For the compound `CCOC(=O)NCC1Cc2c(ccc3nc(-c4cc(C)cc5nc(OC)cnc45)sc23)O1` (centres unmarked) [Example 197, Ethyl ((2-(2-methoxy-7-methylquinoxalin-5-yl)-7,8-dihydrobenzofuro[5,4-d]thiazol-7-yl)methyl)carbamate], the IC50 came out at 22 nM.

Consider `COc1cnc2c(-c3nc4cc(F)c5c(c4s3)C[C@H](COC(=O)Nc3cncc(F)c3)O5)cc(C)cc2n1` [Example 161, (R)-(5-fluoro-2-(2-methoxy-7-methylquinoxalin-5-yl)-7,8-dihydrobenzofuro[5,4-d]thiazo 1-7-yl)methyl (5-fluoropyridin-3-yl)carbamate], for which the IC50 amounted to 1.1 nM.

As for `COc1cncc(NC(=O)OC[C@H]2Cc3c(c(F)cc4nc(-c5cc(C)cc6nc(OC)cnc56)sc34)O2)c1` [Example 168, (R)-(5-fluoro-2-(2-methoxy-7-methylquinoxalin-5-yl)-7,8-dihydrobenzofuro[5,4-d]thiazo 1-7-yl)methyl (5-methoxypyridin-3-yl)carbamate], the IC50 came out at 5 nM.

For the compound `COc1ccc(NC(=O)OC[C@H]2Cc3c(c(F)cc4nc(-c5cc(C)cc6nc(OC)cnc56)sc34)O2)cn1` [Example 164, (R)-(5-fluoro-2-(2-methoxy-7-methylquinoxalin-5-yl)-7,8-dihydrobenzofuro[5,4-d]thiazo 1-7-yl)methyl (6-methoxypyridin-3-yl)carbamate], the IC50 is 1.6 nM.

As to `COc1cnc2c(-c3nc4c(C)cc5c(c4s3)OCC(COC(=O)Nc3ccc(OCCN(C)C)nc3)O5)cc(C)cc2n1` (centres unmarked) [Example 128, (2-(2-methoxy-7-methylquinoxalin-5-yl)-4-methyl-7,8-dihydro-[1,4]dioxino[2′,3′:3,4]benzo[1,2-d]thiazol-7-yl)methyl (6-(2-(dimethylamino)ethoxy)pyridin-3-yl)carbamate], the IC50 is 4 nM.

For the compound `COc1cnc2c(-c3cc4c5c(cc(C)c4o3)O[C@@H](COC(=O)Nc3ccnc(C)c3)CO5)cc(C)cc2n1` [Example 15, (R)-(8-(2-methoxy-7-methylquinoxalin-5-yl)-6-methyl-2,3-dihydro-[1,4]dioxino[2,3-e]benzofuran-3-yl)methyl (2-methylpyridin-4-yl)carbamate], the IC50 worked out at 3.2 nM.

In the case of `COc1cnc2c(-c3nc4ccc5c(c4s3)OC[C@H](COC(=O)Nc3cnc(C)nc3)O5)cc(C)cc2c1` [Example 268, (R)-(2-(3-methoxy-6-methylquinolin-8-yl)-7,8-dihydro-[1,4]dioxino[2′,3′:3,4]benzo[1,2-d]thiazol-7-yl)methyl (2-methylpyrimidin-5-yl)carbamate], the IC50 turned out to be 4.4 nM.

For the compound `COc1cnc2c(-c3nc4cc(F)c5c(c4s3)C[C@@H](CNC(=O)OC(C)(C)C)O5)cc(C)cc2n1` [Example 202, (S)-tert-butyl ((5-fluoro-2-(2-methoxy-7-methylquinoxalin-5-yl)-7,8-dihydrobenzofuro[5,4-d]thiazol-7-yl)methyl)carbamate], the IC50 came to 6.5 nM.

`COc1ccc(NC(=O)OC[C@H]2COc3c(ccc4oc(-c5cc(C)cc6nc(OC)cnc56)cc34)O2)cn1` [Example 13, (R)-(8-(2-methoxy-7-methylquinoxalin-5-yl)-2,3-dihydro-[1,4]dioxino[2,3-e]benzofuran-3-yl)methyl (6-methoxypyridin-3-yl)carbamate]: the IC50 is 1.2 nM.

For `CCOc1cnc2c(-c3nc4cc(F)c5c(c4s3)C[C@H](COC(=O)Nc3cnc(C)nc3)O5)cc(Cl)cc2c1` [Example 270, (R)-(2-(6-chloro-3-ethoxyquinolin-8-yl)-5-fluoro-7,8-dihydrobenzofuro[5,4-d]thiazol-7-y 1)methyl (2-methylpyrimidin-5-yl)carbamate], the IC50 is 2.2 nM.

As for `COc1cnc2c(-c3nc4cc(F)c5c(c4s3)C[C@@H](CNC(=O)OCC(F)(F)F)O5)cc(C)cc2n1` [Example 249, (S)-2,2,2-trifluoroethyl ((5-fluoro-2-(2-methoxy-7-methylquinoxalin-5-yl)-7,8-dihydrobenzofuro[5,4-d]thiazol-7-yl)methyl)carbamate], the IC50 was determined as 1 nM.

For the compound `COc1ccc(NC(=O)OC[C@H]2COc3c(cc(C)c4nc(-c5cc(CO)cc6nc(OC)cnc56)sc34)O2)cn1` [Example 98, (R)-(2-(7-(hydroxymethyl)-2-methoxyquinoxalin-5-yl)-4-methyl-7,8-dihydro-[1,4]dioxino[2′,3′:3,4]benzo[1,2-d]thiazol-7-yl)methyl (6-methoxypyridin-3-yl)carbamate], the IC50 was found to be 1.4 nM.

With `COc1cnc2c(-c3nc4c(C)cc5c(c4s3)OCC(COC(=O)Nc3cncc(C(N)=O)c3)O5)cc(C)cc2n1` (centres unmarked) [Example 77, (2-(2-methoxy-7-methylquinoxalin-5-yl)-4-methyl-7,8-dihydro-[1,4]dioxino [2′,3′:3,4]benzo[1,2-d]thiazol-7-yl)methyl (5-carbamoylpyridin-3-yl)carbamate], the IC50 came to 15 nM.

`COc1cnc2c(-c3nc4c(C)cc5c(c4s3)OC[C@H](COC(=O)Nc3ccc(C#N)nc3)O5)cc(C)cc2n1` [Example 38, (R)-(2-(2-methoxy-7-methylquinoxalin-5-yl)-4-methyl-7,8-dihydro-[1,4]dioxino[2′,3′:3,4]benzo[1,2-d]thiazol-7-yl)methyl (6-cyanopyridin-3-yl)carbamate]: the IC50 stood at 1.3 nM.

For `COC(=O)NC[C@@H]1Cc2c(c(F)cc3nc(-c4cc(C)cc5nc(OC)cnc45)sc23)O1` [Example 210, (S)-methyl ((5-fluoro-2-(2-methoxy-7-methylquinoxalin-5-yl)-7,8-dihydrobenzofuro[5,4-d]thiazol-7-yl)methyl)carbamate], the IC50 came out at 2.9 nM.

In the case of `COc1cnc2c(-c3nc4c(C)cc5c(c4s3)OCC(COC(=O)Nc3ccnc(-c4ccccc4)c3)O5)cc(C)cc2n1` (centres unmarked) [Example 117, (2-(2-methoxy-7-methylquinoxalin-5-yl)-4-methyl-7,8-dihydro-[1,4]dioxino[2′,3′:3,4]benzo[1,2-d]thiazol-7-yl)methyl (2-phenylpyridin-4-yl)carbamate], the IC50 turned out to be 1.1 nM.

In the case of `COc1cnc2c(-c3nc4c(Cl)cc5c(c4s3)OC[C@H](COC(=O)Nc3ccc(N(C)C)nc3)O5)cc(C)cc2n1` [Example 65, (R)-(4-chloro-2-(2-methoxy-7-methylquinoxalin-5-yl)-7,8-dihydro-[1,4]dioxino [2′,3′:3,4]benzo[1,2-d]thiazol-7-yl)methyl (6-(dimethylamino)pyridin-3-yl)carbamate], the IC50 is 16 nM.

Take `COc1cnc2c(-c3nc4cc(F)c5c(c4s3)C[C@H](COC(=O)Nc3cncc(C(N)=O)c3)O5)cc(C)cc2n1` [Example 205, (R)-(5-fluoro-2-(2-methoxy-7-methylquinoxalin-5-yl)-7,8-dihydrobenzofuro[5,4-d]thiazo 1-7-yl)methyl (5-carbamoylpyridin-3-yl)carbamate]: the IC50 stood at 1.3 nM.

As to `COc1cnc2c(-c3nc4cc(F)c5c(c4s3)C[C@@](C)(CO)O5)cc(C)cc2n1` [Example 172, (S)-(5-fluoro-2-(2-methoxy-7-methylquinoxalin-5-yl)-7-methyl-7,8-dihydrobenzofuro[5,4-d]thiazol-7-yl)methanol], the IC50 was 1.1 nM.

Regarding `COc1cnc2c(-c3nc4cc(F)c5c(c4s3)C[C@](C)(COC(=O)Nc3cnc(OCCO)nc3)O5)cc(C)cc2n1` [Example 251, (R)-(5-fluoro-2-(2-methoxy-7-methylquinoxalin-5-yl)-7-methyl-7,8-dihydrobenzofuro[5,4-d]thiazol-7-yl)methyl (2-(2-hydroxyethoxy)pyrimidin-5-yl)carbamate], the IC50 was found to be 0.9 nM.
